The text below walks through data of ChEMBL document CHEMBL4354805, “Discovery of MK-8719, a Potent O-GlcNAcase Inhibitor as a Potential Treatment for Tauopathies” (J Med Chem, 2019).

In general, Ki refers to a dissociation constant, usually derived from enzyme kinetics or from competition with a known ligand. Broadly, the Papp is a coefficient for how fast a substance crosses the barrier. Usually clearance stands for the volume of plasma or blood freed of the substance per unit of time. Low values mean a low capacity for elimination, high ones a high capacity for elimination. The term half-life denotes the time in which the quantity being followed falls by half. A higher half-life goes with slow decline. Broadly, the EC50 is the concentration that produces a half-maximal response.

The target of data set [1] is T1, Protein O-GlcNAcase (Homo sapiens, UniProt O60502).
T1 sequence (O60502 whole entry): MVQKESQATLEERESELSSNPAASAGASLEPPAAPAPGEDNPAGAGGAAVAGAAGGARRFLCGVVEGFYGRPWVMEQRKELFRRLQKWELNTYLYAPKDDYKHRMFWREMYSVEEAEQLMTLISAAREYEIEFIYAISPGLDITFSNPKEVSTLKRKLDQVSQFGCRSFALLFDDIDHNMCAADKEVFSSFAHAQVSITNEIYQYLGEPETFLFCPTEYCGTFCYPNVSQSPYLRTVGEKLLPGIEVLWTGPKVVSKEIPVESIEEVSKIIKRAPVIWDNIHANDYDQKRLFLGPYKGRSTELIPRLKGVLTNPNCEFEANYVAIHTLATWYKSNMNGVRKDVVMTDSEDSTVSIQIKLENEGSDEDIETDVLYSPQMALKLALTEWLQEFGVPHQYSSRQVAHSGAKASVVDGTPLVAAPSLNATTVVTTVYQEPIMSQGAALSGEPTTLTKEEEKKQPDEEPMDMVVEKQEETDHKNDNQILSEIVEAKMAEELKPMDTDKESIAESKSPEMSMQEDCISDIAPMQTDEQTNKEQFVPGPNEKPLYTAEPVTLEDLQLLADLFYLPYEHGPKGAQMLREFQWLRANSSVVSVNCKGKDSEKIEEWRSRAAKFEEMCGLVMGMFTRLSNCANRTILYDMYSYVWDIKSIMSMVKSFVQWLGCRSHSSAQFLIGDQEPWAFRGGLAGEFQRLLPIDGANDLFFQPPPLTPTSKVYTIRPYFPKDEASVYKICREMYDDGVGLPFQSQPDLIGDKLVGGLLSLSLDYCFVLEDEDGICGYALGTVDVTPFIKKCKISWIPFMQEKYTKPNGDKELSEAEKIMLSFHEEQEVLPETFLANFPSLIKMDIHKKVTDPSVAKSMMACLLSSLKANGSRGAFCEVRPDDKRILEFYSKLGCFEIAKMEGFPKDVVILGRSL
Briefly: Inhibition of recombinant human OGA.

The target in data set [2] is T2, Beta-hexosaminidase subunit beta (Homo sapiens, UniProt P07686).
T2 sequence (P07686 whole entry): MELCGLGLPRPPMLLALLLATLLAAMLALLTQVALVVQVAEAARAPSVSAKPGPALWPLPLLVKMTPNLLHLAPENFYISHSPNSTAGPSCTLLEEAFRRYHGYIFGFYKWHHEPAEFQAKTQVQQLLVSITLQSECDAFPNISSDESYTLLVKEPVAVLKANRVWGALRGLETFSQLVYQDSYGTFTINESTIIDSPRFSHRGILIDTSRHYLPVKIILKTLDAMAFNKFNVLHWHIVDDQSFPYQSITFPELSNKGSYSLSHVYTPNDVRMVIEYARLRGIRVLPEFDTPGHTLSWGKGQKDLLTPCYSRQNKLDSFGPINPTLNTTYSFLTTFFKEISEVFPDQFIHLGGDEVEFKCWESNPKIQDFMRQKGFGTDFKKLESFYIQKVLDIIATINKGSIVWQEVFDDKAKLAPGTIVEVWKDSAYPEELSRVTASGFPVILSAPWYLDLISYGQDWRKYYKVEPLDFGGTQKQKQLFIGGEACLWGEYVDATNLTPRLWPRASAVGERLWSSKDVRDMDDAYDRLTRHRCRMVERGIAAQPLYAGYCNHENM
Nature of the data set: Inhibition of human beta hexosaminidase assessed as inhibitory constant using 4-methylumbelliferyl N-acetyl-beta-D-glucosaminide dihydrate as substrate measured every 60 sec for 45 mins by fluorescence spectrophotometry.

A further data set deals with MDR1. Nature of the data set: Apparent permeability in pig LLC-PK1 cells transfected with MDR1. It is filed as ADME, cell-based, Sus scrofa.
A short description of data set [3]: Clearance in Wistar Han rat at 2 mg/kg, iv. It is filed as ADME, organism-based. Particulars: in vivo.
A short description of data set [4]: Volume of distribution at steady state in Wistar Han rat at 2 mg/kg, iv or 3 mg/kg, po. Type of data set: ADME, organism-based. Particulars: in vivo, read-out: Vdss.
A short description of data set [5]: Oral bioavailability in Wistar Han rat at 3 mg/kg. It is filed as ADME, organism-based. To be noted: in vivo.
Data set [6] in a line: AUCN in Wistar Han rat at 3 mg/kg, po. It is filed as ADME, organism-based. Particulars: in vivo.
Data set [7] is described as follows: Half life in Wistar Han rat at 2 mg/kg, iv. To be noted: in vivo. Type of data set: ADME, organism-based.
The target in data set [8] is T3, Protein O-GlcNAcase (Rattus norvegicus, UniProt Q8VIJ5).
T3 sequence (Q8VIJ5 whole entry): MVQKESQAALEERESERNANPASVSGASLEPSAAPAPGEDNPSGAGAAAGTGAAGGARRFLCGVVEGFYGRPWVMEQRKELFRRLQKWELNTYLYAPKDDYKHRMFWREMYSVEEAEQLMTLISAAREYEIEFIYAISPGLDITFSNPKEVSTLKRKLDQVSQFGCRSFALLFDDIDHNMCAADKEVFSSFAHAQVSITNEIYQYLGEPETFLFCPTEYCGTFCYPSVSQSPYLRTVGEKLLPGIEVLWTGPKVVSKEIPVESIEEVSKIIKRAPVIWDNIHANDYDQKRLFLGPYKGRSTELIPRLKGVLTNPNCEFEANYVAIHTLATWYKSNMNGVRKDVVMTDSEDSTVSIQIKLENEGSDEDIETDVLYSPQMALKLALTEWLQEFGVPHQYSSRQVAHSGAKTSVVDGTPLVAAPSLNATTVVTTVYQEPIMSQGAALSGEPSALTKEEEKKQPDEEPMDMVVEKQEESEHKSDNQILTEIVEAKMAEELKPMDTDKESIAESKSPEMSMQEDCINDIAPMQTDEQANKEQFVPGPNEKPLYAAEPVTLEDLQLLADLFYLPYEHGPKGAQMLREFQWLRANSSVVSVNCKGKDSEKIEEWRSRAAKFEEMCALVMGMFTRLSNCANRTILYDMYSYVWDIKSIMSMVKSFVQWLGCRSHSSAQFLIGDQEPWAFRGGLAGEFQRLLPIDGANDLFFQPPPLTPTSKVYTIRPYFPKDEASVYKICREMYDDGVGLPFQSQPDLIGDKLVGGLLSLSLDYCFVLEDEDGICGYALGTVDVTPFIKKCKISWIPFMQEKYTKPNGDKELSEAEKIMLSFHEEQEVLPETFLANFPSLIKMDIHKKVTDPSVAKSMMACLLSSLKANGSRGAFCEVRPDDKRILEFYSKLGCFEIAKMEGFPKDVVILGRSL
Briefly: Inhibition of OGA in rat PC12 cells assessed as OGlcNAcylated protein level incubated for 24 hrs by ELISA. It is filed as cell-based.

With `NC1=N[C@@H]2[C@@H](O)[C@H](O)[C@@H](CF)O[C@@H]2S1`, the inhibitory constant (Ki) on Protein O-GlcNAcase [1] was found to be 1200 nM.

Take `O[C@H]1[C@H](O)[C@@H](CF)O[C@@H]2SC(N3CCC3)=N[C@H]12`: the Ki was over 10000 nM in data set [2] and 200 nM at Protein O-GlcNAcase [1].

With `C=CCN(C)C1=N[C@@H]2[C@@H](O)[C@H](O)[C@@H](CO)O[C@@H]2S1`, in the data set on MDR1, the Papp turned out to be 0.8 ×10⁻⁶ cm/s. For the same molecule, the clearance in [3] worked out at 45.8 mL/min/kg. In addition, the Ki in [2] was 4500 nM. In addition, the Vd in data set [4] is 16.1 L/kg. Moreover, in [5], the bioavailability came to 108%. Further, the AUC/dose in data set [6] was determined as 0.538 µM·kg·h/mg. The half-life in [7] was 4.03 h.

In data set [3], `CCCNC1=N[C@@H]2[C@@H](F)[C@H](O)[C@@H](CO)O[C@@H]2S1` gave a clearance of 48.1 mL/min/kg. Besides, the inhibition constant (Ki) was over 10000 nM in [2] and 14 nM at Protein O-GlcNAcase [1]. In addition, the Vd in data set [4] came to 1.92 L/kg. In addition, the bioavailability in data set [5] was 30.1%. Besides, the EC50 on Protein O-GlcNAcase [8] worked out at 445 nM. The molecule also displayed an AUC/dose in data set [6] of 0.394 µM·kg·h/mg. This molecule showed a half-life in [7] of 1.69 h.

Consider `NC1=N[C@@H]2C[C@H](O)[C@@H](CO)O[C@@H]2S1`, for which the Ki was over 10000 nM in data set [2] and over 3000 nM on Protein O-GlcNAcase [1].

On to `NC1=N[C@@H]2[C@@H](O)[C@H](O)[C@@H](C(F)F)O[C@@H]2S1`, for which, in the data set on MDR1, the Papp worked out at 9.2 ×10⁻⁶ cm/s. For the same molecule, the Ki was over 10000 nM in data set [2] and 760 nM at Protein O-GlcNAcase [1]. For the same molecule, the EC50 on Protein O-GlcNAcase [8] turned out to be 2400 nM.

Consider `OC[C@H]1O[C@@H]2SC(NCCF)=N[C@@H]2[C@@H](O)[C@@H]1O`, for which the Papp in the data set on MDR1 was determined as 2.2 ×10⁻⁶ cm/s. The molecule further showed a clearance in data set [3] of 33.6 mL/min/kg. The Ki in [2] is over 10000 nM; at Protein O-GlcNAcase [1] it was 5.6 nM. The Vd in [4] came to 1.33 L/kg. Besides, the bioavailability in data set [5] turned out to be 48.6%. The EC50 on Protein O-GlcNAcase [8] came to 509 nM. In data set [6], the AUC/dose stood at 0.903 µM·kg·h/mg. In data set [7], this molecule showed a half-life of 1.29 h.

Consider `OC[C@H]1O[C@@H]2SC(N3CCCC3)=N[C@@H]2[C@@H](O)[C@@H]1O`, for which the inhibition constant (Ki) in data set [2] is over 10000 nM.

For the molecule `OC[C@H]1O[C@@H]2SC(N3CC[C@@H](F)C3)=N[C@@H]2[C@@H](O)[C@@H]1O`, the Ki in data set [2] was over 10000 nM.

With `OC[C@H]1O[C@@H]2SC(N3CCCCC3)=N[C@@H]2[C@@H](O)[C@@H]1O`, the results for the Ki (in data set [2]; at Protein O-GlcNAcase [1]) were over 10000 nM and 1800 nM, respectively.

For the molecule `CNC1=N[C@@H]2[C@@H](F)[C@H](O)[C@@H](CO)O[C@@H]2S1`, the Ki turned out to be 8100 nM in [2] and 3 nM on Protein O-GlcNAcase [1]. Besides, the EC50 at Protein O-GlcNAcase [8] amounted to 307 nM.

For `O[C@H]1[C@H](O)[C@@H](C(F)F)O[C@@H]2SC(N3CCC3)=N[C@H]12`, in the data set with MDR1, the Papp turned out to be 18 ×10⁻⁶ cm/s. The Ki was over 10000 nM in [2] and 26 nM at Protein O-GlcNAcase [1].

Turning to `C=CCNC1=N[C@@H]2[C@@H](O)[C@H](O)[C@@H](CF)O[C@@H]2S1`, the values for the inhibitory constant (Ki) (in [2]; at Protein O-GlcNAcase [1]) were over 10000 nM and 180 nM, respectively.

Take `CN(C)C1=N[C@@H]2[C@@H](F)[C@H](O)[C@@H](CO)O[C@@H]2S1`: the Ki in [2] was over 10000 nM; on Protein O-GlcNAcase [1], 41 nM.

As for `C=CCNC1=N[C@@H]2[C@@H](O)[C@H](O)[C@@H](C(F)F)O[C@@H]2S1`, the Papp with MDR1 was determined as 12 ×10⁻⁶ cm/s. The values for the Ki (in data set [2]; at Protein O-GlcNAcase [1]) were over 10000 nM and 74 nM, respectively.

In the case of `CC1CN(C2=N[C@@H]3[C@@H](O)[C@H](O)[C@@H](CO)O[C@@H]3S2)C1`, in the data set on MDR1, the Papp was found to be 2.4 ×10⁻⁶ cm/s. For the same molecule, the Ki is over 10000 nM in data set [2] and 72 nM on Protein O-GlcNAcase [1].

`CN(C)C1=N[C@@H]2C[C@H](O)[C@@H](C(F)F)O[C@@H]2S1`: the Papp with MDR1 came out at 31 ×10⁻⁶ cm/s. Further, the Ki in [2] is over 10000 nM; on Protein O-GlcNAcase [1], over 3000 nM.

In the case of `CN(C)C1=N[C@@H]2C[C@H](O)[C@@H](CO)O[C@@H]2S1`, in data set [3], the clearance was found to be 25.7 mL/min/kg. Also, the Ki in data set [2] was over 10000 nM. For the same molecule, in [4], the Vd amounted to 2.49 L/kg. For the same molecule, in [5], the bioavailability came to 80.1%. The same molecule returned an AUC/dose in data set [6] of 2.26 µM·kg·h/mg. In [7], this molecule had a half-life of 1.95 h.

Turning to `CCCNC1=N[C@@H]2C[C@H](O)[C@@H](CO)O[C@@H]2S1`, in the data set with MDR1, the apparent permeability coefficient (Papp) was found to be 2.5 ×10⁻⁶ cm/s. Moreover, the Ki in [2] is over 10000 nM; at Protein O-GlcNAcase [1] it was 50 nM. Besides, the EC50 at Protein O-GlcNAcase [8] came out at 224 nM.

For `OC[C@H]1O[C@@H]2SC(N3CC(F)C3)=N[C@@H]2[C@@H](O)[C@@H]1O`, the inhibition constant (Ki) on Protein O-GlcNAcase [1] was over 3000 nM.

With `CNC1=N[C@@H]2[C@@H](F)[C@H](O)[C@@H](CF)O[C@@H]2S1`, the inhibition constant (Ki) in [2] is over 10000 nM; at Protein O-GlcNAcase [1], 50 nM.

In the case of `CNC1=N[C@@H]2[C@@H](F)[C@H](O)[C@@H](C(F)F)O[C@@H]2S1`, in the data set with MDR1, the apparent permeability (Papp) was 22 ×10⁻⁶ cm/s. For the same molecule, the Ki in [2] was over 10000 nM; on Protein O-GlcNAcase [1], 58 nM.

With `OC[C@H]1O[C@@H]2SC(N3CCC(F)CC3)=N[C@@H]2[C@@H](O)[C@@H]1O`, the Ki is over 10000 nM in data set [2] and over 3000 nM at Protein O-GlcNAcase [1].
